# Reference: patent US20110263507A1 (priority 2007, published 2011)
# Values joined by “and” are separate entries in the source; they are usually repeats but may differ in a detail not shown here. Equal values may be shown once. Read-outs that look alike come from different tables or passages of the source. Where a SMILES comes first, the peptide text is derived from it. [ ]: non-standard residue; d: D form. dOrn = NCCC[C@@H](N)C(=O)O; Orn = NCCC[C@H](N)C(=O)O; Dab = NCC[C@H](N)C(=O)O
# Tests used:
# hNTS2 = molecular target: T1, hNTS2 (Homo sapiens, UniProt O95665); assay: Radioligand competition binding with [3H]NT, membranes of CHO-K1 cells expressing hNTS2; settings: for hNTS2 Selectivity: hNTS2 over hNTS1; for higher affinity at hNTS2 than the corresponding JMV peptide at mNTS2: NT33 vs JMV 510, NT51 vs JMV 509
# T1 construct: expressed in transfected cells; host or cells: CHO-K1
# hNTS1 = molecular target: T2, hNTS1 (Homo sapiens, UniProt P30989); assay: Radioligand competition binding with [3H]NT, membranes of CHO-K1 cells expressing hNTS1; settings: for hNTS1 Selectivity: Table 2, hNTS1 over hNTS2
# T2 construct: expressed in transfected cells; host or cells: CHO-K1
# Protocol: CHO-K1 cells that had been stably transfected separately with the hNTS1 or hNTS2 genes were cultured in 150 mm (500 cm^2) Petri plates with 35 ml of Dulbecco's modified Eagle's medium containing 100 μM minimal essential medium nonessential amino acids (Life Technologies, Inc.) supplemented with 5% (v/v) FetalClone II bovine serum product (Hyclone Labs, Logan, Utah). […] The cellular pellet (in Tris-HCl buffer) was stored at […] until the radioligand binding was performed.
# For use in binding assays, crude membrane preparations were prepared by centrifugation of the cellular pellet at 35,600×g for 10 min. The supernatant was decanted and discarded, and the cellular pellet was resuspended in 1 ml of Tris-HCl buffer followed by homogenization with a Brinkmann Polytron at setting 5.5 for 15 s. Centrifugation was repeated as above, the supernatant was decanted and discarded, and the cellular pellet was resuspended in 1 ml of Tris-HCl buffer followed by homogenization. Centrifugation was repeated a third time, the supernatant was discarded, and the final cellular pellet was suspended in 0.5-2.5 ml of Tris-HCl buffer. Protein concentration of the membrane preparation was estimated by the method of Lowry et al. using bovine serum albumin as a standard.
# Incubation was at 20° C. for 40 min. The assay was routinely terminated by addition of ice-cold 0.9% NaCl (5×1.5 ml), followed by rapid filtration through a GF/B filter strip that had been pretreated with 0.2% or 2% polyethyleneimine. Details of binding assays have been described previously. […] Data were analyzed using the LIGAND program.
# [1] = Table 2, read-out: hNTS2 Geometric Mean ∀ SEM (equilibrium dissociation constant Kd)
# [2] = read-out: hNTS1 Geometric Mean ∀ SEM (equilibrium dissociation constant Kd)
# T1 sequence (O95665 whole entry): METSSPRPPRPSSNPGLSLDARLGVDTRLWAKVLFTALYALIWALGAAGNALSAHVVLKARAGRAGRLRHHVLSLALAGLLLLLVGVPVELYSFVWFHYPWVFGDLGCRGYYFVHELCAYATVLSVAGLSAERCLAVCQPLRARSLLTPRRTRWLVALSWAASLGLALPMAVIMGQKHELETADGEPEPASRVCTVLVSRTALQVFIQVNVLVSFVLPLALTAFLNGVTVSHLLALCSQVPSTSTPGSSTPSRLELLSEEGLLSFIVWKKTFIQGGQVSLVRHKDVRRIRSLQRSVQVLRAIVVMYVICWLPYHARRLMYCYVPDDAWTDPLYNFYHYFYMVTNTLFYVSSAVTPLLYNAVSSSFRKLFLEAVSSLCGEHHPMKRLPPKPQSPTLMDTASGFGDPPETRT
# T2 sequence (P30989 whole entry): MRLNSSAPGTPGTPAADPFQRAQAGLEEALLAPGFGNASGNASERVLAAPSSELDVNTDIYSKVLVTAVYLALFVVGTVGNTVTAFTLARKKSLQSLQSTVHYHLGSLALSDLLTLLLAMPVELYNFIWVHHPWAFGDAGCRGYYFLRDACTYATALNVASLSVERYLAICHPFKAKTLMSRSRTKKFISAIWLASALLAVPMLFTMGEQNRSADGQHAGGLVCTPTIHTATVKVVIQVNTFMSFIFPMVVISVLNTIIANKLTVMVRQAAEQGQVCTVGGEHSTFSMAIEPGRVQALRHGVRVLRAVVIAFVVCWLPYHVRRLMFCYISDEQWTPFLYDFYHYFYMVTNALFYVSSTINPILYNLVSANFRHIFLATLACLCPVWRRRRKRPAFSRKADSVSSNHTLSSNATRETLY
hNTS2 Selectivity (hNTS2; Table 2),Kd (hNTS2; [1]) [nM],hNTS1 Selectivity (hNTS1),Kd (hNTS1; [2]) [nM],SMILES,also measured
0.2,4.6 ± 0.5,4.6,–,"CC[C@H](C)[C@H](NC(=O)[C@H](Cc1ccc(O)cc1)NC(=O)[C@@H]1CCCN1C(=O)[C@H](CCCNC(=N)N)NC(=O)[C@H](N)CCCCN)C(=O)N[C@@H](CC(C)C)C(=O)O [NT02, [D-Lys^8]NT(8-13)] (H-[dK]RPYIL-OH; N-terminus and C-terminus assumed)",–
0.8,39.6 ± 0.6,1.2,33 ± 6,"CC[C@H](C)[C@H](NC(=O)[C@H](Cc1ccc(O)cc1)NC(=O)[C@@H]1CCCN1C(=O)[C@@H](CCCNC(=N)N)NC(=O)[C@@H](N)CCCCN)C(=O)N[C@@H](CC(C)C)C(=O)O [NT16, [L-Lys^8,D-Arg^9]NT(8-13)] (H-K[dR]PYIL-OH; N-terminus and C-terminus assumed)",–
–,–,–,–,"CC[C@H](C)[C@H](NC(=O)[C@H](Cc1ccc(O)cc1)NC(=O)[C@@H]1CCCN1C(=O)[C@H](CCCCN)NC(=O)[C@@H](N)CCCCN)C(=O)N[C@@H](CC(C)C)C(=O)O [NT19, [L-Lys^8,L-Lys^9]NT(8-13)]",Kd (hNTS2): 2.4 ± 0.3 nM
–,–,–,–,"CC[C@H](C)[C@H](NC(=O)[C@H](Cc1ccc(O)cc1)NC(=O)[C@@H]1CCCN1C(=O)[C@@H](CCCCN)NC(=O)[C@H](N)CCCCN)C(=O)N[C@@H](CC(C)C)C(=O)O [NT20, [D-Lys^8,D-Lys^9]NT(8-13)]",Kd (hNTS2): 730 ± 60 nM
0.2,2.2 ± 0.1,5.2,0.41 ± 0.03,"CC[C@H](C)[C@H](NC(=O)[C@H](Cc1ccc(O)cc1)NC(=O)[C@@H]1CCCN1C(=O)[C@H](CCCNC(=N)N)NC(=O)[C@@H](N)CCCN)C(=O)N[C@@H](CC(C)C)C(=O)O [NT21, [L-Orn^8]NT(8-13)] (H-[Orn]RPYIL-OH; N-terminus and C-terminus assumed)",–
0.3,5.9 ± 0.2,3.2,1.9 ± 0.2,"CC[C@H](C)[C@H](NC(=O)[C@H](Cc1ccc(O)cc1)NC(=O)[C@@H]1CCCN1C(=O)[C@H](CCCNC(=N)N)NC(=O)[C@H](N)CCCN)C(=O)N[C@@H](CC(C)C)C(=O)O [NT22, [D-Orn^8]NT(8-13)] (H-[dOrn]RPYIL-OH; N-terminus and C-terminus assumed)",–
0.6,1.5 ± 0.1,1.6,0.94 ± 0.06,"CC[C@H](C)[C@H](NC(=O)[C@H](Cc1ccc(O)cc1)NC(=O)[C@@H]1CCCN1C(=O)[C@H](CCCN)NC(=O)[C@@H](N)CCCNC(=N)N)C(=O)N[C@@H](CC(C)C)C(=O)O [NT23, [L-Orn^9]NT(8-13)] (H-R[Orn]PYIL-OH; N-terminus and C-terminus assumed)",–
0.2,790 ± 20,6.6,120 ± 10,"CC[C@H](C)[C@H](NC(=O)[C@H](Cc1ccc(O)cc1)NC(=O)[C@@H]1CCCN1C(=O)[C@@H](CCCN)NC(=O)[C@@H](N)CCCNC(=N)N)C(=O)N[C@@H](CC(C)C)C(=O)O [NT24, [D-Orn^9]NT(8-13)] (H-R[dOrn]PYIL-OH; N-terminus and C-terminus assumed)",–
0.8,3.9 ± 0.2,1.3,3 ± 0.3,"CC[C@H](C)[C@H](NC(=O)[C@H](Cc1ccc(O)cc1)NC(=O)[C@@H]1CCCN1C(=O)[C@H](CCCN)NC(=O)[C@@H](N)CCCN)C(=O)N[C@@H](CC(C)C)C(=O)O [NT25, [L-Orn^8,L-Orn^9]NT(8-13)]",–
0.3,1082 ± 6,3.0,360 ± 40,"CC[C@H](C)[C@H](NC(=O)[C@H](Cc1ccc(O)cc1)NC(=O)[C@@H]1CCCN1C(=O)[C@@H](CCCN)NC(=O)[C@@H](N)CCCN)C(=O)N[C@@H](CC(C)C)C(=O)O [NT26, [L-Orn^8,D-Orn^9]NT(8-13)]",–
0.2,24 ± 2,6.6,3.6 ± 0.2,"CC[C@H](C)[C@H](NC(=O)[C@H](Cc1ccc(O)cc1)NC(=O)[C@@H]1CCCN1C(=O)[C@H](CCCN)NC(=O)[C@H](N)CCCN)C(=O)N[C@@H](CC(C)C)C(=O)O [NT27, [D-Orn^8,L-Orn^9]NT(8-13)]",–
0.3,1900 ± 100,3.2,600 ± 20,"CC[C@H](C)[C@H](NC(=O)[C@H](Cc1ccc(O)cc1)NC(=O)[C@@H]1CCCN1C(=O)[C@@H](CCCN)NC(=O)[C@H](N)CCCN)C(=O)N[C@@H](CC(C)C)C(=O)O [NT28, [D-Orn^8,D-Orn^9]NT(8-13)]",–
0.2,6.5 ± 0.3,5.6,1.2 ± 0.1,"CC[C@H](C)[C@H](NC(=O)[C@H](Cc1ccc(O)cc1)NC(=O)[C@@H]1CCCN1C(=O)[C@H](CCCNC(=N)N)NC(=O)[C@@H](N)CCN)C(=O)N[C@@H](CC(C)C)C(=O)O [NT29, [DAB^8]NT(8-13)] (H-[Dab]RPYIL-OH; N-terminus and C-terminus assumed)",–
0.1,19.5 ± 0.7,9.1,2.1 ± 0.3,"CC[C@H](C)[C@H](NC(=O)[C@H](Cc1ccc(O)cc1)NC(=O)[C@@H]1CCCN1C(=O)[C@H](CCN)NC(=O)[C@@H](N)CCN)C(=O)N[C@@H](CC(C)C)C(=O)O [NT31, [DAB^8,DAB^9]NT(8-13)] (H-[Dab][Dab]PYIL-OH; N-terminus and C-terminus assumed)",–
–,18 ± 1,–,–,"CC[C@H](C)[C@H](NC(=O)[C@H](Cc1ccc2ccccc2c1)NC(=O)[C@@H]1CCCN1C(=O)[C@H](CCCNC(=N)N)NC(=O)[C@@H](N)CCCNC(=N)N)C(=O)N[C@@H](CC(C)C)C(=O)O [NT33, [L-3,2-Nal^11]NT(8-13)]",higher affinity at hNTS2 than the corresponding JMV peptide at mNTS2 (hNTS2): 12 fold
0.3,1190 ± 40,4.0,300 ± 50,"CC[C@H](C)[C@H](NC(=O)[C@H](Cc1ccc(O)cc1)NC(=O)[C@@H]1CCCN1C(=O)[C@@H](N)CCCN)C(=O)N[C@@H](CC(C)C)C(=O)O [NT34, [L-Orn^9]NT(9-13)] (H-[Orn]PYIL-OH; N-terminus and C-terminus assumed)",–
0.1,–,19.1,–,"CC[C@H](C)[C@H](NC(=O)[C@H](Cc1ccc(O)cc1)NC(=O)[C@@H]1CCCN1C(=O)[C@H](N)CCCN)C(=O)N[C@@H](CC(C)C)C(=O)O [NT35, [D-Orn^9]NT(9-13)] (H-[dOrn]PYIL-OH; N-terminus and C-terminus assumed)","Kd (hNTS2; text b54, read-out: Kd at hNTS2): 10000 nM; Kd (hNTS2; text, read-out: Kd at hNTS2): 10500 nM; Kd (hNTS1; text, read-out: Kd at hNTS1): 550 nM"
–,14,–,–,"CC[C@H](C)[C@H](NC(=O)[C@@H]1Cc2ccccc2CN1C(=O)[C@@H]1CCCN1C(=O)[C@H](CCCNC(=N)N)NC(=O)[C@@H](N)CCCNC(=N)N)C(=O)N[C@@H](CC(C)C)C(=O)O [NT47, [L-TIC^11]NT(8-13)]",–
–,255,–,–,"CC[C@H](C)[C@H](NC(=O)[C@H]1Cc2ccccc2CN1C(=O)[C@@H]1CCCN1C(=O)[C@H](CCCNC(=N)N)NC(=O)[C@@H](N)CCCNC(=N)N)C(=O)N[C@@H](CC(C)C)C(=O)O [NT48, [D-TIC^11]NT(8-13)]",–
–,1.28 ± 0.05,–,–,"CC[C@H](C)[C@H](NC(=O)[C@H](Cc1cccc2ccccc12)NC(=O)[C@@H]1CCCN1C(=O)[C@H](CCCNC(=N)N)NC(=O)[C@@H](N)CCCNC(=N)N)C(=O)N[C@@H](CC(C)C)C(=O)O [NT49, [L-3,1-Nal^11]NT(8-13)]",–
–,–,–,–,"CC[C@H](C)[C@H](NC(=O)[C@@H](Cc1ccc2ccccc2c1)NC(=O)[C@@H]1CCCN1C(=O)[C@H](CCCNC(=N)N)NC(=O)[C@@H](N)CCCNC(=N)N)C(=O)N[C@@H](CC(C)C)C(=O)O [NT51, [D-3,2-Nal^11]NT(8-13)]","decrease in affinity at NTS2 on changing from L- to D-3,2-Nal (hNTS2; NT33 compared to NT51): < 2 fold; higher affinity at hNTS2 than the corresponding JMV peptide at mNTS2 (hNTS2): 28 fold and ~30 fold; Kd (hNTS2; text, read-out: Kd at hNTS2): 32.9 nM"

SMILES,hNTS2 Selectivity (hNTS2; Table 2),Kd (hNTS2; [1]) [nM],hNTS1 Selectivity (hNTS1),Kd (hNTS1; [2]) [nM],also measured
"CC[C@H](C)[C@H](NC(=O)[C@H](Cc1ccc(O)cc1)NC(=O)[C@@H]1CCCN1C(=O)[C@@H](CCCCN)NC(=O)[C@@H](N)CCCNC(=N)N)C(=O)N[C@@H](CC(C)C)C(=O)O [NT03, [D-Lys^9]NT(8-13)] (H-R[dK]PYIL-OH; N-terminus and C-terminus assumed)",2.5,–,0.4,–,Kd (hNTS2): 280 ± 30 nM; Kd (hNTS1): 690 ± 30 nM
"CC[C@H](C)[C@H](NC(=O)[C@H](Cc1ccc(O)cc1)NC(=O)[C@@H]1CCCN1C(=O)[C@H](CCCCN)NC(=O)[C@H](N)CCCNC(=N)N)C(=O)N[C@@H](CC(C)C)C(=O)O [NT15, [D-Arg^8,L-Lys^9]NT(8-13)] (H-[dR]KPYIL-OH; N-terminus and C-terminus assumed)",0.2,–,4.0,–,Kd (hNTS2): 18 ± 2 nM; Kd (hNTS1): 3.5 ± 0.5 nM
